A value given as a limit tells only on which side of the number the result lay.

As a reminder, the EC50 is the midpoint of the concentration-response curve.

In the assay the test system is HEK293T cells carrying the ATF4 luciferase reporter. Nature of the assay: ATF4-Luc assay, in vitro model of Vanishing Cell White Matter Disease (VWMD). Particulars: Homo sapiens, HEK-293T, 1 μg/mL tunicamycin, 7 hours, One Glo luminescence. The class given is cell-based. In outline: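 Stable HEK293T line with human ATF4 5′-UTR–firefly luciferase reporter treated with 1 μg/mL tunicamycin plus 200 nM compound for 7 h. Luminescence read; EC50 derived.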
Turning to `CC(C)c1oncc1C(=O)NC12CC(NC(=O)COc3ccc(Cl)c(F)c3)(C1)C2` [Compound 855, N-{3-[2-(4-chloro-3-fluorophenoxy)acetamido]bicyclo[1.1.1]pentan-1-yl}-5-(propan-2-yl)-1,2-oxazole-4-carboxamide], the EC50 was more than 2000 nM.

Take `Cc1cc(C(=O)NC23CC(NC(=O)COc4ccc(Cl)c(F)c4)(C2)C3)cnc1C` [Compound 856, N-{3-[2-(4-chloro-3-fluorophenoxy)acetamido]bicyclo[1.1.1]pentan-1-yl}-5,6-dimethylpyridine-3-carboxamide]: the EC50 is 250 to 1000 nM.

As to `COc1csc(C(=O)NC23CC(NC(=O)COc4ccc(Cl)c(F)c4)(C2)C3)c1` [Compound 857, N-{3-[2-(4-chloro-3-fluorophenoxy)acetamido]bicyclo[1.1.1]pentan-1-yl}-4-methoxythiophene-2-carboxamide], the EC50 fell in the range of 50 to 250 nM.

Take `C[S+]([O-])c1ccccc1C(=O)NC12CC(NC(=O)COc3ccc(Cl)c(F)c3)(C1)C2` (stereo not shown) [Compound 858, N-{3-[2-(4-chloro-3-fluorophenoxy)acetamido]bicyclo[1.1.1]pentan-1-yl}-2-(methanesulfinyl)benzamide]: the EC50 lay in the range of 1000 to 2000 nM.

As for `CCc1ocnc1C(=O)NC12CC(NC(=O)COc3ccc(Cl)c(F)c3)(C1)C2` [Compound 859, N-{3-[2-(4-chloro-3-fluorophenoxy)acetamido]bicyclo[1.1.1]pentan-1-yl}-5-ethyl-1,3-oxazole-4-carboxamide], the EC50 was more than 2000 nM.

For `N#Cc1ccsc1C(=O)NC12CC(NC(=O)COc3ccc(Cl)c(F)c3)(C1)C2` [Compound 860, N-{3-[2-(4-chloro-3-fluorophenoxy)acetamido]bicyclo[1.1.1]pentan-1-yl}-3-cyanothiophene-2-carboxamide], the EC50 fell in the range of 1000 to 2000 nM.

On to `CCOc1ncccc1C(=O)NC12CC(NC(=O)COc3ccc(Cl)c(F)c3)(C1)C2` [Compound 861, N-{3-[2-(4-chloro-3-fluorophenoxy)acetamido]bicyclo[1.1.1]pentan-1-yl}-2-ethoxypyridine-3-carboxamide], for which the EC50 was more than 2000 nM.

Take `O=C(COc1ccc(Cl)c(F)c1)NC12CC(NC(=O)c3ccccc3-n3cncn3)(C1)C2` [Compound 862, N-{3-[2-(4-chloro-3-fluorophenoxy)acetamido]bicyclo[1.1.1]pentan-1-yl}-2-(1H-1,2,4-triazol-1-yl)benzamide]: the EC50 was more than 2000 nM.

For `COc1ncc(F)cc1C(=O)NC12CC(NC(=O)COc3ccc(Cl)c(F)c3)(C1)C2` [Compound 863, N-{3-[2-(4-chloro-3-fluorophenoxy)acetamido]bicyclo[1.1.1]pentan-1-yl}-5-fluoro-2-methoxypyridine-3-carboxamide], the EC50 was more than 2000 nM.

As to `O=C(COc1ccc(Cl)c(F)c1)NC12CC(NC(=O)c3cnc4ncccc4n3)(C1)C2` [Compound 864, N-{3-[2-(4-chloro-3-fluorophenoxy)acetamido]bicyclo[1.1.1]pentan-1-yl}pyrido[2,3-b]pyrazine-2-carboxamide], the EC50 was more than 2000 nM.

On to `Cc1nn(C)cc1-c1cc(C(=O)NC23CC(NC(=O)COc4ccc(Cl)c(F)c4)(C2)C3)no1` [Compound 865, N-{3-[2-(4-chloro-3-fluorophenoxy)acetamido]bicyclo[1.1.1]pentan-1-yl}-5-(1,3-dimethyl-1H-pyrazol-4-yl)-1,2-oxazole-3-carboxamide], for which the EC50 lay within 1000 to 2000 nM.

On to `CSc1ccccc1C(=O)NC12CC(NC(=O)COc3ccc(Cl)c(F)c3)(C1)C2` [Compound 866, N-{3-[2-(4-chloro-3-fluorophenoxy)acetamido]bicyclo[1.1.1]pentan-1-yl}-2-(methylsulfanyl)benzamide], for which the 50% effective concentration (EC50) was more than 2000 nM.

As for `Cn1c(C(=O)NC23CC(NC(=O)COc4ccc(Cl)c(F)c4)(C2)C3)ccc1S(N)(=O)=O` [Compound 867, N-{3-[2-(4-chloro-3-fluorophenoxy)acetamido]bicyclo[1.1.1]pentan-1-yl}-1-methyl-5-sulfamoyl-1H-pyrrole-2-carboxamide], the EC50 was more than 2000 nM.

The values above are taken from patent US10913727B2, “Modulators of the integrated stress pathway” (Calico Life Sciences LLC, priority 2016, dated 2021).
